Test results as given in patent US10059701B2 (Merck Patent GmbH, priority 2015, dated 2018).
pIC50: −log10 of the molar value.

Tests used:
IRAK1 = target: T1, IRAK1 (Homo sapiens, UniProt P51617); assay: IRAK1 enzymatic assay (ADP-Glo luminescence); assay type: biochemical; details: purified human recombinant His-TEV-IRAK1 (194-712)
T1 construct: His-TEV-IRAK1 (194-712); His (N); TEV cleavage site (N)
Summary of the method: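 Luminescent ADP-Glo read-out of ATP turnover by purified His-TEV-IRAK1 (194-712) at 0.3 μg/ml after a 2-hour RT reaction. Compounds, serially diluted from 10 μM to 0.5 nM, were preincubated with enzyme 15 minutes in Hepes pH 7.0 buffer with MgCl2, DTT, EGTA and Triton X-100.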

IRAK4 = target: T2, IRAK4 (Homo sapiens, UniProt Q9NWZ3); assay: IRAK4 enzymatic assay (ADP-Glo luminescence); assay type: biochemical; details: purified human recombinant His-TEV-IRAK4 (1-460), ATP 2 μM
T2 construct: His-TEV-IRAK4 (1-460); His (N); TEV cleavage site (N)
T2 sequence (Q9NWZ3 1-460): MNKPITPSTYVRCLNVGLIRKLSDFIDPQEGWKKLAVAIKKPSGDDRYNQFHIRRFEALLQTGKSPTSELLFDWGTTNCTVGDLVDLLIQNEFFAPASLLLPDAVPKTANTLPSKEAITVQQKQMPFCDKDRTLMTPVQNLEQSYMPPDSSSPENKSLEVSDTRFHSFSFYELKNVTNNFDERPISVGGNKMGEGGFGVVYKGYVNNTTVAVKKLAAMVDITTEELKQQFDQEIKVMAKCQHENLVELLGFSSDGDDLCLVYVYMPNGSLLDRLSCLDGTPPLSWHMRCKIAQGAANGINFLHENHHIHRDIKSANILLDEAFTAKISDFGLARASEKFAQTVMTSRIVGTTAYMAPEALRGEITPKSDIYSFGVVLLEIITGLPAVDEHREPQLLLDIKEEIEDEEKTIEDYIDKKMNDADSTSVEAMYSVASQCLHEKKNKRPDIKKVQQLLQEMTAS
Summary of the method: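 ADP-Glo luminescence read-out after a 2 h RT kinase reaction with 2 μM ATP and 300 nM biotinylated STK1 peptide. Enzyme (His-TEV-IRAK4 1-460, 0.3 μg/ml) first incubated 15 min with serially diluted compounds (10 μM–0.5 nM) in 50 mM Hepes pH 7.0, 10 mM MgCl2, 5 mM MnCl2.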

T1 sequence (P51617 194-712): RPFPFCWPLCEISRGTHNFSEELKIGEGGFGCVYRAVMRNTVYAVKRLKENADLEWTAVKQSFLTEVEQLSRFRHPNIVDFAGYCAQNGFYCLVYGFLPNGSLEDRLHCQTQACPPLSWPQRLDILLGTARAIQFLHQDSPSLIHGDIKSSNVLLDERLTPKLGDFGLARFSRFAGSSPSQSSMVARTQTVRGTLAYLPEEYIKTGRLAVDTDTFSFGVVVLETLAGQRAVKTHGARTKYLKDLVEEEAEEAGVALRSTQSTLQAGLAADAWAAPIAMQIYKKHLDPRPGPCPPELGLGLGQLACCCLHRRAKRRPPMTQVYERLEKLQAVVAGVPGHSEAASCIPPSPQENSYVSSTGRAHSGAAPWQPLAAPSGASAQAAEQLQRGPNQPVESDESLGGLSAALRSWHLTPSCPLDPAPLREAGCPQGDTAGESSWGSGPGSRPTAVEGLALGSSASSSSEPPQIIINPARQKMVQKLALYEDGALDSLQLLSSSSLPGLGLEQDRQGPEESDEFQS

pIC50 (IRAK1)	pIC50 (IRAK4)	SMILES
≥ 7.00	≥ 7.00	CS(=O)(=O)CCCn1/c(=N/C(=O)c2cccc(C(F)F)c2)[nH]c2cc(N3CCOCC3=O)ccc21 [Compound 90, (E)-3-(difluoromethyl)-N-(1-(3-(methylsulfonyl)propyl)-5-(3-oxomorpholino)-1H-benzo[d]imidazol-2(3H)-ylidene)benzamide]
6.00 to 7.00	≥ 7.00	C[S+]([O-])CCCn1/c(=N/C(=O)c2cccc(C(F)F)c2)[nH]c2cc(N3CCOCC3=O)ccc21 (centres unmarked) [Compound 91, (E)-3-(difluoromethyl)-N-(1-(3-(methylsulfinyl)propyl)-5-(3-oxomorpholino)-1H-benzo[d]imidazol-2(3H)-ylidene)benzamide]
6.00 to 7.00	≥ 7.00	CSCCCn1/c(=N/C(=O)c2cccc(C(F)F)c2)[nH]c2cc(N3CCOCC3=O)ccc21 [Compound 92, (E)-3-(difluoromethyl)-N-(1-(3-(methylthio)propyl)-5-(3-oxomorpholino)-1H-benzo[d]imidazol-2(3H)-ylidene)benzamide]
≥ 7.00	≥ 7.00	CS(=O)(=O)CCn1/c(=N/C(=O)c2cccc(C(F)F)c2)[nH]c2cc(N3CCOCC3=O)ccc21 [Compound 93, (E)-3-(difluoromethyl)-N-(1-(2-(methylsulfonyl)ethyl)-5-(3-oxomorpholino)-1H-benzo[d]imidazol-2(3H)-ylidene)benzamide]
6.00 to 7.00	≥ 7.00	C[S+]([O-])CCn1/c(=N/C(=O)c2cccc(C(F)F)c2)[nH]c2cc(N3CCOCC3=O)ccc21 (centres unmarked) [Compound 94, (E)-3-(difluoromethyl)-N-(1-(2-(methylsulfinyl)ethyl)-5-(3-oxomorpholino)-1H-benzo[d]imidazol-2(3H)-ylidene)benzamide]
≥ 7.00	≥ 7.00	CNS(=O)(=O)c1cccc(C(=O)/N=c2\[nH]c3cc(N4CCOCC4=O)ccc3n2CCCO)c1 [Compound 97, (E)-N-(1-(3-hydroxypropyl)-5-(3-oxomorpholino)-1H-benzo[d]imidazol-2(3H)-ylidene)-3-(N-methylsulfamoyl)benzamide]
≥ 7.00	≥ 7.00	NS(=O)(=O)c1cccc(C(=O)/N=c2\[nH]c3cc(N4CCOCC4=O)ccc3n2CCCO)c1 [Compound 100, (E)-N-(1-(3-hydroxypropyl)-5-(3-oxomorpholino)-1H-benzo[d]imidazol-2(3H)-ylidene)-3-sulfamoylbenzamide]
6.00 to 7.00	≥ 7.00	CN(C)S(=O)(=O)c1cccc(C(=O)/N=c2\[nH]c3cc(N4CCOCC4=O)ccc3n2CCCO)c1 [Compound 101, (E)-3-(N,N-dimethylsulfamoyl)-N-(1-(3-hydroxypropyl)-5-(3-oxomorpholino)-1H-benzo[d]imidazol-2(3H)-ylidene)benzamide]
< 6.00	< 6.00	O=C(/N=c1\[nH]c2cc(N3CCOCC3=O)ccc2n1CCCO)c1ccc2nc[nH]c2c1 [Compound 102, (E)-N-(1-(3-hydroxypropyl)-5-(3-oxomorpholino)-1H-benzo[d]imidazol-2(3H)-ylidene)-1H-benzo[d]imidazole-6-carboxamide]
6.00 to 7.00	≥ 7.00	CC(F)(F)c1cccc(C(=O)/N=c2\[nH]c3cc(N4CCOCC4=O)ccc3n2CCCO)c1 [Compound 103, (E)-3-(1,1-difluoroethyl)-N-(1-(3-hydroxypropyl)-5-(3-oxomorpholino)-1H-benzo[d]imidazol-2(3H)-ylidene)benzamide]
6.00 to 7.00	≥ 7.00	O=C(/N=c1\[nH]c2cc(N3CCOCC3=O)ccc2n1CCCO)c1cccc(CF)c1 [Compound 104, (E)-3-(fluoromethyl)-N-(1-(3-hydroxypropyl)-5-(3-oxomorpholino)-1H-benzo[d]imidazol-2(3H)-ylidene)benzamide]
6.00 to 7.00	≥ 7.00	Cc1cccc(C(=O)/N=c2\[nH]c3cc(N4CCOCC4=O)ccc3n2CCCO)c1 [Compound 105, (E)-N-(1-(3-hydroxypropyl)-5-(3-oxomorpholino)-1H-benzo[d]imidazol-2(3H)-ylidene)-3-methylbenzamide]
6.00 to 7.00	≥ 7.00	O=C(/N=c1\[nH]c2cc(N3CCOCC3=O)ccc2n1CCCO)c1cccc(Cl)c1 [Compound 106, (E)-3-chloro-N-(1-(3-hydroxypropyl)-5-(3-oxomorpholino)-1H-benzo[d]imidazol-2(3H)-ylidene)benzamide]
≥ 7.00	≥ 7.00	O=C(/N=c1\[nH]c2cc(N3CCOCC3=O)ccc2n1CCCO)c1cccc(-c2cc[nH]c(=O)c2)c1 [Compound 107, (E)-N-(1-(3-hydroxypropyl)-5-(3-oxomorpholino)-1H-benzo[d]imidazol-2(3H)-ylidene)-3-(2-oxo-1,2-dihydropyridin-4-yl)benzamide]
≥ 7.00	≥ 7.00	O=C(/N=c1\[nH]c2cc(N3CCNCC3=O)ccc2n1CCCO)c1cccc(C(F)(F)F)c1 [Compound 108, (E)-N-(1-(3-hydroxypropyl)-5-(2-oxopiperazin-1-yl)-1H-benzo[d]imidazol-2(3H)-ylidene)-3-(trifluoromethyl)benzamide]
6.00 to 7.00	≥ 7.00	O=C(/N=c1\[nH]c2cc(N3CCNCC3=O)ccc2n1CCCO)c1cccc(C(F)F)c1 [Compound 109, (E)-3-(difluoromethyl)-N-(1-(3-hydroxypropyl)-5-(2-oxopiperazin-1-yl)-1H-benzo[d]imidazol-2(3H)-ylidene)benzamide]
≥ 7.00	≥ 7.00	CC(=O)N1CCN(c2ccc3c(c2)[nH]/c(=N\C(=O)c2cccc(C(F)F)c2)n3CCCO)C(=O)C1 [Compound 110, (E)-N-(5-(4-acetyl-2-oxopiperazin-1-yl)-(1-(3-hydroxypropyl)-1H-benzo[d]imidazol-2(3H)-ylidene))-3-(difluoromethyl)benzamide]
6.00 to 7.00	≥ 7.00	CN1CCN(c2ccc3c(c2)[nH]/c(=N\C(=O)c2cccc(C(F)F)c2)n3CCCO)C(=O)C1 [Compound 111, (E)-3-(difluoromethyl)-N-(1-(3-hydroxypropyl)-5-(4-methyl-2-oxopiperazin-1-yl)-1H-benzo[d]imidazol-2(3H)-ylidene)benzamide]
≥ 7.00	≥ 7.00	O=C(/N=c1\[nH]c2cc(N3CCN(CC4CC4)CC3=O)ccc2n1CCCO)c1cccc(C(F)F)c1 [Compound 112, (E)-N-(5-(4-(cyclopropylmethyl)-2-oxopiperazin-1-yl)-1-(3-hydroxypropyl)-1H-benzo[d]imidazol-2(3H)-ylidene)-3-(difluoromethyl)benzamide]
6.00 to 7.00	≥ 7.00	O=C(/N=c1\[nH]c2cc(N3CCN(CC(F)(F)F)CC3=O)ccc2n1CCCO)c1cccc(C(F)F)c1 [Compound 113, (E)-3-(difluoromethyl)-N-(1-(3-hydroxypropyl)-5-(2-oxo-4-(2,2,2-trifluoroethyl)piperazin-1-yl)-1H-benzo[d]imidazol-2(3H)-ylidene)benzamide]
< 6.00	< 6.00	O=C(/N=c1\[nH]c2cc(N3CCOCC3=O)ccc2n1C1(CCO)CCCCC1)c1cccc(C(F)(F)F)c1 [Compound 114, (E)-N-(1-(1-(2-hydroxyethyl)cyclohexyl)-5-(3-oxomorpholino)-1H-benzo[d]imidazol-2(3H)-ylidene)-3-(trifluoromethyl)benzamide]
< 6.00	6.00 to 7.00	O=C(/N=c1\[nH]c2cc(N3CCOCC3=O)ccc2n1C1(CCO)CCCCC1)c1cccc(C(F)F)c1 [Compound 115, (E)-3-(difluoromethyl)-N-(1-(1-(2-hydroxyethyl)cyclohexyl)-5-(3-oxomorpholino)-1H-benzo[d]imidazol-2(3H)-ylidene)benzamide]
6.00 to 7.00	≥ 7.00	O=C(/N=c1\[nH]c2cc(N3CCOCC3=O)ccc2n1C1CCCC(CO)C1)c1cccc(C(F)(F)F)c1 (centres unmarked) [Compound 120, (E)-N-(1-(3-(hydroxymethyl)cyclohexyl)-5-(3-oxomorpholino)-1H-benzo[d]imidazol-2(3H)-ylidene)-3-(trifluoromethyl)benzamide]
6.00 to 7.00	≥ 7.00	O=C(/N=c1\[nH]c2cc(N3CCOCC3=O)ccc2n1C1CCCC(CO)C1)c1cccc(C(F)F)c1 (centres unmarked) [Compound 121, (E)-3-(difluoromethyl)-N-(1-(3-(hydroxymethyl)cyclohexyl)-5-(3-oxomorpholino)-1H-benzo[d]imidazol-2(3H)-ylidene)benzamide]
≥ 7.00	≥ 7.00	O=C(/N=c1\[nH]c2cc(N3CCOCC3=O)ccc2n1[C@H]1CC[C@@H](CO)CC1)c1cccc(C(F)(F)F)c1 [Compound 122, cis-(E)-N-(1-(4-(hydroxymethyl)cyclohexyl)-5-(3-oxomorpholino)-1H-benzo[d]imidazol-2(3H)-ylidene)-3-(trifluoromethyl)benzamide]
